What was measured:
Test in all cases: relative viability (nuclei count vs DMSO), 5 days (fraction); higher = more cells survive
201T = system: 201T
Procedure, shortened: (§1)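 Lung cancer cell lines were pin-tool dosed in 1536-well plates on the day after seeding, with either a lone drug or a fixed anchor-drug dose plus five library-drug doses (not always all listed) in √10 steps. Nuclei were counted on 4× images after 5 days. Relative viability is the ratio of treated-well to vehicle-well nuclei counts, with each value a median of duplicate plates.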

ABC-1 = system: ABC-1
Procedure, shortened: as §1

BEN = system: BEN
Procedure, shortened: as §1

HCC-366 = system: HCC-366
Procedure, shortened: as §1

HCC-44 = system: HCC-44
Procedure, shortened: as §1

HCC-78 = system: HCC-78
Procedure, shortened: as §1

LK-2 = system: LK-2
Procedure, shortened: as §1

LOU-NH91 = system: LOU-NH91
Procedure, shortened: as §1

NCI-H1355 = system: NCI-H1355
Procedure, shortened: as §1

NCI-H1666 = system: NCI-H1666
Procedure, shortened: as §1

NCI-H1734 = system: NCI-H1734
Procedure, shortened: as §1

NCI-H1755 = system: NCI-H1755
Procedure, shortened: as §1

NCI-H2009 = system: NCI-H2009
Procedure, shortened: as §1

NCI-H2228 = system: NCI-H2228
Procedure, shortened: as §1

NCI-H2347 = system: NCI-H2347
Procedure, shortened: as §1

NCI-H2405 = system: NCI-H2405
Procedure, shortened: as §1

NCI-H358 = system: NCI-H358
Procedure, shortened: as §1

NCI-H520 = system: NCI-H520
Procedure, shortened: as §1

NCI-H727 = system: NCI-H727
Procedure, shortened: as §1

NCI-H838 = system: NCI-H838
Procedure, shortened: as §1

SW 1573 = system: SW 1573
Procedure, shortened: as §1

UMC-11 = system: UMC-11
Procedure, shortened: as §1

## Cc1cnc(-c2cnc(NCCNc3ccc(C#N)cn3)nc2-c2ccc(Cl)cc2Cl)[nH]1 + C[C@]1(O)C[C@@H](c2nc(-c3ccc4ccc(-c5ccccc5)nc4c3)c3c(N)nccn32)C1 [Linsitinib] (partner 1 µM)
201T; first compound 0.08 µM
  relative viability: 1.03
201T; first compound 0.253 µM
  relative viability: 1.01
201T; first compound 0.8 µM
  relative viability: 1.02
201T; first compound 2.53 µM
  relative viability: 1.01
ABC-1; first compound 0.08 µM
  relative viability: 1.04
ABC-1; first compound 0.253 µM
  relative viability: 0.682
ABC-1; first compound 0.8 µM
  relative viability: 0.839
ABC-1; first compound 2.53 µM
  relative viability: 0.593
BEN; first compound 0.08 µM
  relative viability: 0.951
BEN; first compound 0.253 µM
  relative viability: 0.843
BEN; first compound 0.8 µM
  relative viability: 0.994
BEN; first compound 2.53 µM
  relative viability: 0.928
HCC-366; first compound 0.08 µM
  relative viability: 0.694
HCC-366; first compound 0.253 µM
  relative viability: 0.557
HCC-366; first compound 0.8 µM
  relative viability: 0.608
HCC-366; first compound 2.53 µM
  relative viability: 0.28
HCC-44; first compound 0.08 µM
  relative viability: 0.685
HCC-44; first compound 0.253 µM
  relative viability: 0.553
HCC-44; first compound 0.8 µM
  relative viability: 0.681
HCC-44; first compound 2.53 µM
  relative viability: 0.787
HCC-78; first compound 0.08 µM
  relative viability: 0.632
HCC-78; first compound 0.253 µM
  relative viability: 0.437
HCC-78; first compound 0.8 µM
  relative viability: 0.459
HCC-78; first compound 2.53 µM
  relative viability: 0.435
LK-2; first compound 0.08 µM
  relative viability: 0.62
LK-2; first compound 0.253 µM
  relative viability: 0.476
LK-2; first compound 0.8 µM
  relative viability: 0.489
LK-2; first compound 2.53 µM
  relative viability: 0.789
LOU-NH91; first compound 0.08 µM
  relative viability: 1.07
LOU-NH91; first compound 0.253 µM
  relative viability: 0.951
LOU-NH91; first compound 0.8 µM
  relative viability: 0.969
LOU-NH91; first compound 2.53 µM
  relative viability: 0.89
NCI-H1355; first compound 0.08 µM
  relative viability: 0.88
NCI-H1355; first compound 0.253 µM
  relative viability: 0.841
NCI-H1355; first compound 0.8 µM
  relative viability: 0.765
NCI-H1355; first compound 2.53 µM
  relative viability: 0.732
NCI-H1666; first compound 0.08 µM
  relative viability: 0.926
NCI-H1666; first compound 0.253 µM
  relative viability: 0.868
NCI-H1666; first compound 0.8 µM
  relative viability: 0.921
NCI-H1666; first compound 2.53 µM
  relative viability: 0.976
NCI-H1734; first compound 0.08 µM
  relative viability: 1.01
NCI-H1734; first compound 0.253 µM
  relative viability: 0.763
NCI-H1734; first compound 0.8 µM
  relative viability: 0.837
NCI-H1734; first compound 2.53 µM
  relative viability: 0.849
NCI-H1755; first compound 0.08 µM
  relative viability: 1.03
NCI-H1755; first compound 0.253 µM
  relative viability: 0.856
NCI-H1755; first compound 0.8 µM
  relative viability: 0.958
NCI-H1755; first compound 2.53 µM
  relative viability: 0.991
NCI-H2009; first compound 0.08 µM
  relative viability: 1.21
NCI-H2009; first compound 0.253 µM
  relative viability: 1.14
NCI-H2009; first compound 0.8 µM
  relative viability: 1.23
NCI-H2009; first compound 2.53 µM
  relative viability: 1.1
NCI-H2228; first compound 0.08 µM
  relative viability: 0.678
NCI-H2228; first compound 0.253 µM
  relative viability: 0.637
NCI-H2228; first compound 0.8 µM
  relative viability: 0.597
NCI-H2228; first compound 2.53 µM
  relative viability: 0.481
NCI-H2347; first compound 0.08 µM
  relative viability: 1.08
NCI-H2347; first compound 0.253 µM
  relative viability: 0.72
NCI-H2347; first compound 0.8 µM
  relative viability: 1
NCI-H2347; first compound 2.53 µM
  relative viability: 1.02
NCI-H2405; first compound 0.08 µM
  relative viability: 1.25
NCI-H2405; first compound 0.253 µM
  relative viability: 0.856
NCI-H2405; first compound 0.8 µM
  relative viability: 0.999
NCI-H2405; first compound 2.53 µM
  relative viability: 0.709
NCI-H358; first compound 0.08 µM
  relative viability: 0.833
NCI-H358; first compound 0.253 µM
  relative viability: 0.561
NCI-H358; first compound 0.8 µM
  relative viability: 0.696
NCI-H358; first compound 2.53 µM
  relative viability: 0.618
NCI-H520; first compound 0.08 µM
  relative viability: 0.974
NCI-H520; first compound 0.253 µM
  relative viability: 0.985
NCI-H520; first compound 0.8 µM
  relative viability: 0.965
NCI-H520; first compound 2.53 µM
  relative viability: 1.09
NCI-H727; first compound 0.08 µM
  relative viability: 0.29
NCI-H727; first compound 0.253 µM
  relative viability: 0.334
NCI-H727; first compound 0.8 µM
  relative viability: 0.295
NCI-H838; first compound 0.08 µM
  relative viability: 1.02
NCI-H838; first compound 0.253 µM
  relative viability: 1.02
NCI-H838; first compound 0.8 µM
  relative viability: 1.25
NCI-H838; first compound 2.53 µM
  relative viability: 1.51
SW 1573; first compound 0.08 µM
  relative viability: 0.945
SW 1573; first compound 0.253 µM
  relative viability: 0.744
SW 1573; first compound 0.8 µM
  relative viability: 0.845
SW 1573; first compound 2.53 µM
  relative viability: 0.695
UMC-11; first compound 0.08 µM
  relative viability: 1.04
UMC-11; first compound 0.253 µM
  relative viability: 1
UMC-11; first compound 0.8 µM
  relative viability: 1
UMC-11; first compound 2.53 µM
  relative viability: 0.985

## Cc1cnc(-c2cnc(NCCNc3ccc(C#N)cn3)nc2-c2ccc(Cl)cc2Cl)[nH]1 + NC(=O)Nc1cc(-c2cccc(F)c2)sc1C(=O)N[C@H]1CCCNC1 [AZD7762] (partner 0.2 µM)
201T; first compound 0.08 µM
  relative viability: 0.702
201T; first compound 0.8 µM
  relative viability: 0.567
201T; first compound 2.53 µM
  relative viability: 0.619
ABC-1; first compound 0.253 µM
  relative viability: 0.772
ABC-1; first compound 0.8 µM
  relative viability: 0.771
ABC-1; first compound 2.53 µM
  relative viability: 0.862
BEN; first compound 0.08 µM
  relative viability: 0.714
BEN; first compound 0.253 µM
  relative viability: 0.699
BEN; first compound 0.8 µM
  relative viability: 0.726
BEN; first compound 2.53 µM
  relative viability: 0.736
HCC-366; first compound 0.08 µM
  relative viability: 0.284
HCC-366; first compound 0.253 µM
  relative viability: 0.202
HCC-366; first compound 0.8 µM
  relative viability: 0.197
HCC-366; first compound 2.53 µM
  relative viability: 0.0746
HCC-44; first compound 0.08 µM
  relative viability: 1.05
HCC-44; first compound 0.253 µM
  relative viability: 1.02
HCC-44; first compound 0.8 µM
  relative viability: 1.06
HCC-44; first compound 2.53 µM
  relative viability: 1.15
HCC-78; first compound 0.08 µM
  relative viability: 0.582
HCC-78; first compound 0.253 µM
  relative viability: 0.582
HCC-78; first compound 0.8 µM
  relative viability: 0.604
HCC-78; first compound 2.53 µM
  relative viability: 0.606
LK-2; first compound 0.08 µM
  relative viability: 0.436
LK-2; first compound 0.253 µM
  relative viability: 0.421
LK-2; first compound 2.53 µM
  relative viability: 0.393
LOU-NH91; first compound 0.08 µM
  relative viability: 0.823
LOU-NH91; first compound 0.253 µM
  relative viability: 0.753
LOU-NH91; first compound 0.8 µM
  relative viability: 0.768
LOU-NH91; first compound 2.53 µM
  relative viability: 0.83
NCI-H1355; first compound 0.08 µM
  relative viability: 0.831
NCI-H1355; first compound 0.253 µM
  relative viability: 0.624
NCI-H1355; first compound 0.8 µM
  relative viability: 0.691
NCI-H1355; first compound 2.53 µM
  relative viability: 0.577
NCI-H1666; first compound 0.08 µM
  relative viability: 0.852
NCI-H1666; first compound 0.253 µM
  relative viability: 0.864
NCI-H1666; first compound 0.8 µM
  relative viability: 0.838
NCI-H1666; first compound 2.53 µM
  relative viability: 0.78
NCI-H1734; first compound 0.08 µM
  relative viability: 0.513
NCI-H1734; first compound 0.253 µM
  relative viability: 0.522
NCI-H1734; first compound 0.8 µM
  relative viability: 0.543
NCI-H1734; first compound 2.53 µM
  relative viability: 0.459
NCI-H1755; first compound 0.08 µM
  relative viability: 0.459
NCI-H1755; first compound 0.253 µM
  relative viability: 0.445
NCI-H1755; first compound 0.8 µM
  relative viability: 0.404
NCI-H1755; first compound 2.53 µM
  relative viability: 0.443
NCI-H2347; first compound 0.08 µM
  relative viability: 0.873
NCI-H2347; first compound 0.253 µM
  relative viability: 0.612
NCI-H2347; first compound 0.8 µM
  relative viability: 0.689
NCI-H2347; first compound 2.53 µM
  relative viability: 0.79
NCI-H2405; first compound 0.08 µM
  relative viability: 0.758
NCI-H2405; first compound 0.253 µM
  relative viability: 0.595
NCI-H2405; first compound 0.8 µM
  relative viability: 0.744
NCI-H2405; first compound 2.53 µM
  relative viability: 0.333
NCI-H358; first compound 0.08 µM
  relative viability: 0.529
NCI-H358; first compound 0.253 µM
  relative viability: 0.5
NCI-H358; first compound 0.8 µM
  relative viability: 0.478
NCI-H358; first compound 2.53 µM
  relative viability: 0.47
NCI-H727; first compound 0.08 µM
  relative viability: 0.621
NCI-H727; first compound 0.253 µM
  relative viability: 0.547
NCI-H727; first compound 0.8 µM
  relative viability: 0.574
NCI-H727; first compound 2.53 µM
  relative viability: 0.651
NCI-H838; first compound 0.08 µM
  relative viability: 0.973
NCI-H838; first compound 0.253 µM
  relative viability: 0.919
NCI-H838; first compound 0.8 µM
  relative viability: 0.941
NCI-H838; first compound 2.53 µM
  relative viability: 0.983

From the supplement of paper PMC10307832
